SMILES strings stand for the structures. Where only a bound is given, the exact number is not on record here.

Data set [1] deals with DAT (Macaca fascicularis, UniProt Q9GJT6). The data set can be described thus: MicroPET imaging in anesthetized cynomolgus monkeys. Type of data set: in vivo. Particulars: anesthetized cynomolgus monkey.
Data set [2] deals with DAT. Kind of data set: HRRT PET imaging in an awake rhesus monkey. Type of data set: in vivo. Particulars: HRRT PET images.

Sequence of DAT (Macaca fascicularis, UniProt Q9GJT6) (Q9GJT6 whole entry): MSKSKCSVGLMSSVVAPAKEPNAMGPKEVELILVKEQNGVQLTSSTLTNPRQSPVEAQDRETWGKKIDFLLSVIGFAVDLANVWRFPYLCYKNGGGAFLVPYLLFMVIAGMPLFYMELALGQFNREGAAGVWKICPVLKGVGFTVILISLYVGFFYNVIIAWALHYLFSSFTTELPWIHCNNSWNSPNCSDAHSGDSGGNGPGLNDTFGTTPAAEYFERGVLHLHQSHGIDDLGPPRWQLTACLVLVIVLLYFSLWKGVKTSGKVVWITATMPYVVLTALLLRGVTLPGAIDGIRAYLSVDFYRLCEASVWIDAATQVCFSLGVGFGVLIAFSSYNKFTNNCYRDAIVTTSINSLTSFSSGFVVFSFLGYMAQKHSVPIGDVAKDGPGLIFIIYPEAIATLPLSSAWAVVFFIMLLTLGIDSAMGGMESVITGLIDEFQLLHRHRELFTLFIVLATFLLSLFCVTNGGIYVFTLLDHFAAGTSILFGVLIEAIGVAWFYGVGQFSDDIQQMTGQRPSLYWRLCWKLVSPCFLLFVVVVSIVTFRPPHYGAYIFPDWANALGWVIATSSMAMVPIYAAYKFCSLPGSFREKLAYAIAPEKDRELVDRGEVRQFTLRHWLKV

For the molecule `COC(=O)C1C(c2ccc(F)cc2)CC2CCC1N2C/C=C/C[18F]` (stereo not drawn) [[^18F]9, A-((E)-4-[^18F]fluorobut-2-en-1-yl)-2β-carbomethoxy-3β-(4′-fluorophenyl)nortropane], on DAT [1] (19 (RTI-113•HCl) 0.3 mg/kg at 90 min post-injection), the “Displacement of radiotracer in chase study” value is recorded as “complete displacement”. For the same molecule, at DAT [1] (microPET baseline), the “Time to peak uptake in the putamen” value was at most 20 min and the “Time to peak uptake in the substantia nigra” value is given as at most 10 min. Besides, the “Defluorination (radioactivity in the skull)” value on DAT [1] (microPET images) is “low degree of defluorination”. The “Defluorination (visualization of the skull)” value in the data set with DAT [2] is on record as “some degree of defluorination”.

(Values after PMC3756492 (Journal of medicinal chemistry, 2010).)
